Measured values published in US8652787B2, “Use of ERBB4 as a prognostic and therapeutic marker for melanoma” (The United States of America, as represented by the …, priority 2008, dated 2014).
Entries after “also recorded” stand apart in the source; their conditions may differ.

Assays:
AKT (P-S473) = assay: Western blot of AKT phosphorylation in lapatinib-treated melanoma cells; format: cell-based, human; settings: 1 hour, 5 μM lapatinib
Description: (§1) Cells were treated for 72 hours in the presence of increasing concentrations (0.01-30 μM) of lapatinib, and relative cell number was estimated by methylene blue protein staining and plotted as percent survival when compared to vehicle-treated control versus Log (lapatinib) nM (where 1 is 10 nM lapatinib). Fitted lines were generated using 4-parameter nonlinear regression via GraphPad Prism. […] The IC50 values for inhibition of cell growth by 72 hour treatment with lapatinib of a larger panel of lines harboring WT and mutant ERBB4 were analyzed using GraphPad Prism v.5 (n=3). (C) Immunoprecipitation and western blot analysis of ERBB4 autophosphorylation in cells treated with lapatinib. Cells were treated for 1 hour with lapatinib or vehicle alone as control. […] The activity of ERBB4, AKT and ERBB2 was determined by immunoblotting with phospho-specific antibodies. […] Lysates and immunoprecipitates were analyzed by western blotting using the indicated antibodies. […] (E) Quantitative assessment of data from 2 cell lines harboring WT ERBB4 and 3 cell lines harboring mutant ERBB4 that were performed similarly to (D). […] (G) Quantitation of FACS-sorted lapatinib-treated cells. The percent apoptotic cells were determined based on the sub-G1 population for vehicle-treated cells or lapatinib-treated cells.

ERBB4 (P-Y1162) = assay: Immunoprecipitation and western blot of ERBB4 autophosphorylation in lapatinib-treated melanoma cells; format: cell-based, human
Description: as §1

ERK1 and ERK2 = assay: Western blot of ERK1/2 phosphorylation in lapatinib-treated melanoma cells; format: cell-based, human; settings: 72 hours, 5 μM lapatinib; P-ERK1/ERK1, P-ERK2/ERK2
Description: FIG. 14: Effect of lapatinib in ERK1/2 signaling pathways. […] Cells were treated for 72 hours with 5 μM lapatinib or vehicle as control. The activity of ERK1 and ERK2 was determined by immunoblotting with phospho-specific antibodies. Total ERK protein was also determined by immunoblotting. Shown are representative blots. (B) Quantitative assessment of data from one melanoma cell line harboring mutant ERBB4. The ratio of band intensities of P-ERK1/ERK1 or P-ERK2/ERK2 was analyzed for each melanoma cell line.
Transfected cells were washed 3× in PBS and lysed using 0.5 ml 1% NP-40 lysis buffer (1% NP-40, 50 mM Tris-HCl pH 7.5, 150 mM NaCl, complete protease inhibitor tablet, EDTA-free (Roche, Indianapolis, Ind.), 1 μM sodium orthovanadate, 1 mM sodium fluoride, and 0.1% β-mercaptoethanol) per T-75 flask for 20 minutes on ice. Lysed cells were scraped and transferred into a 1.5 mL microcentrifuge tube. Extracts were centrifuged for 10 minutes at 14,000 rpm at 4° C. […]
Scanned films from western blot analysis of SDS-PAGE were analyzed using ImageJ (NIH software). Individual bands were quantitated and plots were generated to determine the intensities in each band. The data was then exported to Microsoft Excel and analyzed further for phospho:total ratios of protein.

[1] = system: melanoma cell lines harboring mutant ERBB4; assay: Growth inhibition of melanoma cell lines by lapatinib (72 h, methylene blue staining / SYBR Green I); format: cell-based, human
Description: as §1

[2] = system: melanoma cells harboring mutant ERBB4 or WT ERBB4; assay: Flow cytometry (PI staining) of the sub-G1 apoptotic population after lapatinib; format: cell-based, human; settings: 72 hours, 5 μM lapatinib, FACS
Description: as §1

ERBB2 (P-Y1248) = ERBB2 (P-Y1248) (Homo sapiens, UniProt P04626); assay: Immunoprecipitation and western blot of ERBB2 phosphorylation in lapatinib-treated melanoma cells; format: cell-based; settings: 1 hour, 5 μM lapatinib
Description: as §1

Sequence of ERBB2 (P-Y1248) (P04626 23-1255): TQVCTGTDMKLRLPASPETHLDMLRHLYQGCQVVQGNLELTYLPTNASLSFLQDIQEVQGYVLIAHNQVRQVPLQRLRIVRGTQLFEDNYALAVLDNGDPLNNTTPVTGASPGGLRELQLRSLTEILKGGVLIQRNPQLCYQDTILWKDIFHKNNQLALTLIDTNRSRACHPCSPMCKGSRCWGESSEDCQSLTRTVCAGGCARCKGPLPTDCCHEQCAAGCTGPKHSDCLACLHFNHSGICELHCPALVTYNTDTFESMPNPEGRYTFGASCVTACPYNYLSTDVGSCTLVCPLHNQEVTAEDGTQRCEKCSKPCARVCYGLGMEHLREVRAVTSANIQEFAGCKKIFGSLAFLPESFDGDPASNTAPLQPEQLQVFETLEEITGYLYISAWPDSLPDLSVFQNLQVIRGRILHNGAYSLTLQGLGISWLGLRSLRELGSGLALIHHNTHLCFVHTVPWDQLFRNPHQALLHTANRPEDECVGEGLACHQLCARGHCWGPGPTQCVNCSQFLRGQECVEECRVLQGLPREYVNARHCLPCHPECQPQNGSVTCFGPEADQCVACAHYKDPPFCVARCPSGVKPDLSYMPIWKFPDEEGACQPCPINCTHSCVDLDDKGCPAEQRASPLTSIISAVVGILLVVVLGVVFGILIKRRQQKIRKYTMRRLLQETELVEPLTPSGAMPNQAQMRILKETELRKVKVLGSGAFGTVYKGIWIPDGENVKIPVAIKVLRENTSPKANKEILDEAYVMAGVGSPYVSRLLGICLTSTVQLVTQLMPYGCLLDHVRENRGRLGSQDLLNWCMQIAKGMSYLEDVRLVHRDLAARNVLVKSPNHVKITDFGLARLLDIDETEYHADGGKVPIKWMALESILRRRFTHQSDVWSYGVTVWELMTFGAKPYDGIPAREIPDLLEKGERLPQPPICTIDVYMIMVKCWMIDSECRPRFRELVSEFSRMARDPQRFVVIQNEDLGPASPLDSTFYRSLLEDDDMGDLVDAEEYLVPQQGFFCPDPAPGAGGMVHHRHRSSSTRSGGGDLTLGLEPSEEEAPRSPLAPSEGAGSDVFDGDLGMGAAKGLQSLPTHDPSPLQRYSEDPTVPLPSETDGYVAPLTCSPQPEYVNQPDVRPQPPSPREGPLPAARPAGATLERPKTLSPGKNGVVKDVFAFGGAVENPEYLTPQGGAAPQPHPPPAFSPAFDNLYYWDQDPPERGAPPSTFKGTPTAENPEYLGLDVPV

CS(=O)(=O)CCNCc1ccc(-c2ccc3ncnc(Nc4ccc(OCc5cccc(F)c5)c(Cl)c4)c3c2)o1 [lapatinib]
inhibition of AKT activation in cells harboring mutant ERBB4 (AKT (P-S473)): specific inhibition of ERBB4 and AKT activation | inhibition of ERBB4 activation in cells harboring mutant ERBB4 (ERBB4 (P-Y1162); 1 hour, 5 μM lapatinib, (P-Y1162)-ERBB4/ERBB4): specific inhibition of ERBB4 and AKT activation | inhibition of ERBB4 receptor autophosphorylation (ERBB4 (P-Y1162); cells treated for 1 hour with lapatinib, α-P-ERBB4 (Y1162)): inhibited receptor autophosphorylation in a dose-dependent manner | inhibition of ERK activation (ERK1 and ERK2): slightly inhibited; also recorded: increased lapatinib sensitivity with respect to ERK1 and ERK2 phosphorylation | reduction of cell proliferation / sensitivity to lapatinib, ERBB4 mutant versus WT ERBB4 melanoma cells ([1]; 72 hours, 0.01-30 μM lapatinib, compared with cells containing endogenous WT ERBB4): increased sensitivity to lapatinib compared to WT ERBB4 cell lines; also recorded: reduced cell proliferation to a greater extent in cells containing endogenous ERBB4 mutations | fold greater sensitivity to lapatinib (from IC50) of melanoma cells harboring ERBB4 mutations than cells with WT receptor ([1]; IC50 for inhibition of cell growth, 72 hour treatment, n=3): 10- to 250 fold | apoptosis (sub-G1 population) of melanoma cells harboring mutant ERBB4 compared to WT ERBB4 lines [2]: increased sub-G1 population | apoptosis (sub-G1 population) of melanoma cells harboring mutant ERBB4 compared to WT ERBB4 lines ([2]; listed as Lapatinib): markedly increased apoptosis | inhibition of ERBB2 in melanoma cell lines (ERBB2 (P-Y1248)): No inhibition
